The results in this text go back to ChEMBL document CHEMBL6078684, “Discovery of a Novel Non-invasive AR PROTAC Degrader for the Topical Treatment of Androgenetic Alopecia” (J Med Chem, 2024).

Molecules are shown by their SMILES. Calls of active or inactive are those of the source. The calls are words filed in the database; no cut-off is given here. Where only a bound is given, the exact number is not on record here.

A short description of series [1]: Drug uptake in male Sprague-Dawley rat Dorsal skin assessed as retention rat at 1 mg/ml, TOP measured after 30 mins by LC-MS/MS analysis. Format: ADME, tissue-based, Zone of skin. The conditions noted are these: in vivo, topical_or_ocular, 0.5 h.
For series [2], the target named is Protein cereblon/Androgen receptor (Homo sapiens, UniProt P10275+Q96SW2). The series is described as follows: PROTAC activity at CRBN/AR in human dermal papilla cell assessed as induction of AR degradation measured after 24 to 72 hrs by Western blot analysis. Format: cell-based.
The nature of series [3]: Inhibition of TGF-beta1 release in human dermal papilla cells assessed as TGF-beta1 concentration at 1 uM preincubated with testosterone for 24 hrs followed by compound addition and measured after 48 hrs by ELISA. Format: functional, Human dermal papilla cell.
For series [4], the system named is Mus musculus. The series is described as follows: Hair regeneration efficacy in testosterone induced male C57BL/6 mouse androgenetic alopecia model at 5 %, TOP administered once daily for 14 days and measured after 21 days with co-administration of 0.2% testosterone for 28 days by photographic analysis. It counts as functional, organism-based. The conditions noted are these: time 21.0 day.

The test system of series [5] is Mus musculus. Nature of the series: Hair regeneration efficacy in testosterone induced male C57BL/6 mouse androgenetic alopecia model earlier pigmentation at 5 %, TOP administered once daily for 14 days and measured after 21 days with co-administration of 0.2% testosterone for 28 days by photographic analysis. The conditions noted are these: time 14.0 day. It counts as functional, organism-based.

Series [6] has as its system Mus musculus. Nature of the series: In vivo induction of AR degradation in testosterone induced male C57BL/6 mouse androgenetic alopecia model assessed as decrease in AR protein level in skin at […] TOP administered once daily for 14 days with co-administration of 0.2% testosterone for 28 days by Western blot analysis. Format: functional, organism-based. Conditions: time 14.0 day. (In general: A western blot detects proteins with antibodies after separation by electrophoresis.)

For series [7], the system named is Mus musculus. Nature of the series: Hair regeneration efficacy in testosterone induced male C57BL/6 mouse androgenetic alopecia model assessed as generation of thick hair with intact scales at 5 %, TOP administered once daily for 14 days with co-administration of 0.2% testosterone and measured after 28 days by SEM analysis. Format: functional, organism-based. Conditions: time 28.0 day.

In series [8] the test system is Mus musculus. Nature of the series: Hair regeneration efficacy in testosterone induced male C57BL/6 mouse androgenetic alopecia model assessed as entry of hair follicles to anagen phase by measuring high density of enlarged hair bulbs in subcutaneous tissue at 5 %, TOP administered once daily for 14 days with co-administration of 0.2% testosterone for 28 days by H and E staining based analysis. It counts as functional, organism-based. Conditions: time 14.0 day.

Series [9] deals with Human dermal papilla cell. The series is described as follows: Downregulation of TGF-beta1 expression level in human dermal papilla cells at 1 uM preincubated with testosterone for 24 hrs followed by compound addition and measured after 48 hrs by Western blot analysis. Format: functional, cell-based.
The subject of series [10] is Mus musculus. Nature of the series: Hair regeneration efficacy in testosterone induced male C57BL/6 mouse androgenetic alopecia model assessed as increase in Ki67 expression in skin at 5 % TOP administered once daily for 14 days with co-administration of 0.2% testosterone for 28 days by DAPI staining based immunofluorescence analysis. It counts as functional, organism-based. Conditions: time 14.0 day.

In series [11] the test system is Mus musculus. Nature of the series: Hair regeneration efficacy in testosterone induced male C57BL/6 mouse androgenetic alopecia model assessed as well formed stratum corneum in hair at 5 %, TOP administered once daily for 14 days with co-administration of 0.2% testosterone and measured after 28 days by SEM analysis. Conditions: time 28.0 day. Format: functional, organism-based.

For series [12], the system named is Mus musculus. The series is described as follows: Hair regeneration efficacy in testosterone induced male C57BL/6 mouse androgenetic alopecia model assessed as increase in hair cycle score at 5 %, TOP administered once daily for 14 days with co-administration of 0.2% testosterone for 28 days. Format: functional, organism-based. The conditions noted are these: time 14.0 day.

Series [13] has as its system Human dermal papilla cell. Nature of the series: Downregulation of AR protein expression in human dermal papilla cells at 1 uM preincubated with testosterone for 24 hrs followed by compound addition and measured after 48 hrs by Western blot analysis. Format: functional, cell-based.
Series [14] deals with Human dermal papilla cell. Nature of the series: Upregulation of beta-catenin level in human dermal papilla cells at 1 uM preincubated with testosterone for 24 hrs followed by compound addition and measured after 48 hrs by Western blot analysis. Format: functional, cell-based.

Sequence of Protein cereblon/Androgen receptor (P10275 whole entry): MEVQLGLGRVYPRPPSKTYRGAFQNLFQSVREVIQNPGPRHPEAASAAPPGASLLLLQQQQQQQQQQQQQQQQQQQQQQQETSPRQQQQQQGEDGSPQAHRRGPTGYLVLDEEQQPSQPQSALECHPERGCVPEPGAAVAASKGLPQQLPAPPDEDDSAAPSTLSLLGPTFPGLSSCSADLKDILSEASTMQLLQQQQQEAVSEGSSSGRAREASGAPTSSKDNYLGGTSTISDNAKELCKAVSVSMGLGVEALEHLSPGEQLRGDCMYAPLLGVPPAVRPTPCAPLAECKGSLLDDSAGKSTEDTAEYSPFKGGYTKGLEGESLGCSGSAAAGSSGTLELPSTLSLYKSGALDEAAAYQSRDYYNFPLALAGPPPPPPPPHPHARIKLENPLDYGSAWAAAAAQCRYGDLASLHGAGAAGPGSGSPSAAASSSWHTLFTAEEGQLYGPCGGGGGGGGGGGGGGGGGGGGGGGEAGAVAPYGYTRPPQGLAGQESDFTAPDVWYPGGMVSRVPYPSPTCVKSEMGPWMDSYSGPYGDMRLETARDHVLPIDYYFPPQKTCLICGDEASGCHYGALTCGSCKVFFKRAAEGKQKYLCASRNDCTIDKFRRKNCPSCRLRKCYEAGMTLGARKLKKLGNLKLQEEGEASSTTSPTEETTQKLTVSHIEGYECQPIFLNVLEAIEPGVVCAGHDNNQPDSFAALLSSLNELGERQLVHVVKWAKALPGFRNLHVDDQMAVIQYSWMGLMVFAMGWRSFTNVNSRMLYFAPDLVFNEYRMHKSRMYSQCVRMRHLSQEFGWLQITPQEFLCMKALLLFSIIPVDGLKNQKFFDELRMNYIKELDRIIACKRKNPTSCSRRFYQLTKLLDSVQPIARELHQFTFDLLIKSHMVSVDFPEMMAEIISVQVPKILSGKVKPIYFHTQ
Sequence of Protein cereblon/Androgen receptor (Q96SW2 whole entry): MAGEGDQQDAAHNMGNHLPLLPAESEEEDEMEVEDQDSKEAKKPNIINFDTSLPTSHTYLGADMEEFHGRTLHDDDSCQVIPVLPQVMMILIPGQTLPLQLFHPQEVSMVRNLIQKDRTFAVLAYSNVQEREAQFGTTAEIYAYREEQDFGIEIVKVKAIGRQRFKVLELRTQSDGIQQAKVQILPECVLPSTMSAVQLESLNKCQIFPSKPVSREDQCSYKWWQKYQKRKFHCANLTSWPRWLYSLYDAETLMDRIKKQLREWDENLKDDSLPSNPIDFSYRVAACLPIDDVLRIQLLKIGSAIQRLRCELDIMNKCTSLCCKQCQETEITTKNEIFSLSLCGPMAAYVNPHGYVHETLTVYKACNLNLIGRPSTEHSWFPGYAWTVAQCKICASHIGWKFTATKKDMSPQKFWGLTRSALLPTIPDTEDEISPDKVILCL

Take `O=C1CCC(N2C(=O)c3ccc(N4CCN(CC5CCN(c6ccc(C(F)(F)F)cc6)CC5)CC4)cc3C2=O)C(=O)N1` (stereo not given): the Drug uptake in series [1] was 8.73%.

By DC50 is commonly meant the midpoint of the concentration-degradation curve. `N#Cc1ccc(O[C@H]2CC[C@H](NC(=O)c3ccc(N4CCN(CC5CCN(c6ccc7c(c6)C(=O)N(C6CCC(=O)NC6=O)C7=O)C5)CC4)cc3)CC2)cc1Cl` (stereo not given in full): in [1], the Drug uptake worked out at 0.74%. Also, the DC50 in [2] is over 1 µM.

As to `O=C1CCC(N2C(=O)c3ccc(N4CCC(CN5CCN(c6ccc(C(F)(F)F)cc6)CC5)C4)cc3C2=O)C(=O)N1` (stereo not given), in [1], the Drug uptake was 0.68%. Consider `O=C1CCC(N2C(=O)c3ccc(N4CCCC(CN5CCC(c6ccc(C(F)(F)F)cc6)CC5)C4)cc3C2=O)C(=O)N1` (stereo not given), for which, in series [1], the Drug uptake worked out at 5.75%. On the same count and under the same terms, in the case of `O=C1CCC(N2C(=O)c3ccc(N4CC(N5CCN(c6ccc(C(F)(F)F)cc6)CC5)C4)cc3C2=O)C(=O)N1` (stereo not given) it was 5.84%. With `Nc1cc(N2CCCCC2)nc(N)[n+]1[O-]` [MINOXIDIL], the Activity in series [3] amounted to 952.22 pg/mL. Further, the outcome (in the series with Mus musculus [4]; in the series on Mus musculus [5]; in the series on Mus musculus [7]; in the series on Mus musculus [8]; in series [9]; with Mus musculus [10]) was Active. The outcome (with Mus musculus [11]; in the series on Mus musculus [12]; in series [14]) was Active. Moreover, the outcome (in the series with Mus musculus [6]; in series [13]) was inactive. For `O=C1CCC(N2Cc3cc(C#CCN4CCN(c5ccc(C(F)(F)F)cc5)CC4)ccc3C2=O)C(=O)N1` (stereo not given), in [1], the Drug uptake was determined as 2.48%. For the compound `O=C1CCC(NC(=O)c2ccc(N3CCN(C4CCN(c5ccc(F)cc5)CC4)CC3)cc2)C(=O)N1` (stereo not given), the Drug uptake in series [1] is on record as 9.12%. With `N#Cc1ccc(O[C@H]2CC[C@H](NC(=O)c3ccc(N4CCN(CC5CCN(c6ccc(C(=O)NC7CCC(=O)NC7=O)cc6)C5)CC4)cc3)CC2)cc1Cl` (stereo not given in full), the Drug uptake in series [1] turned out to be 1.86%. Besides, the DC50 in series [2] is over 1 µM. On to `O=C1CCC(NC(=O)c2ccc(N3CCN(CC4CCN(c5ccc(F)cc5)CC4)CC3)cc2)C(=O)N1` (stereo not given), for which the Drug uptake in series [1] was found to be 4.99%. Turning to `N#Cc1ccc(O[C@H]2CC[C@H](NC(=O)c3ccc(CCCCN4CCN(c5ccc(C(=O)NC6CCC(=O)NC6=O)cc5)CC4)cc3)CC2)cc1Cl` (stereo not given in full), in [1], the Drug uptake is listed as 1.49%. Moreover, the DC50 in [2] is over 1 µM. In the case of `O=C1CCC(N2C(=O)c3ccc(N4CC(CN5CCC(c6ccc(C(F)(F)F)cc6)CC5)C4)cc3C2=O)C(=O)N1` (stereo not given), in [1], the Drug uptake was 8.45%. Still for that read-out and setting: in the case of `O=C1CCC(N2Cc3c(OCC#CCN4CCN(CC#Cc5ccc(C(F)(F)F)cc5)CC4)cccc3C2=O)C(=O)N1` (stereo not given) it was 1.91%. Regarding `N#Cc1ccc(O[C@H]2CC[C@H](NC(=O)c3ccc(N4CCC(N5CCN(c6ccc(C(=O)NC7CCC(=O)NC7=O)cc6)CC5)CC4)cc3)CC2)cc1Cl` (stereo not given in full), in series [1], the Drug uptake is 1.31%. In addition, in [2], the DC50 was found to be 0.104 µM.

With `O=C1CCC(N2C(=O)c3cc(F)c(N4CC(CN5CCC(c6ccc(C(F)(F)F)cc6)CC5)C4)cc3C2=O)C(=O)N1` (stereo not given), in [1], the Drug uptake is on record as 2.22%. The same measure, in the same setting: in the case of `O=C1CCC(NC(=O)c2ccc(N3CCN(CCCCc4ccc(F)cc4)CC3)cc2)C(=O)N1` (stereo not given) it was 6.93%. On to `CNC(=O)c1ccc(N2C(=S)N(c3ccc(C#N)c(C(F)(F)F)c3)C(=O)C2(C)C)cc1F` [ENZALUTAMIDE], for which, in series [3], the Activity stood at 1195 pg/mL. For the same compound, the result in series [9] and in series [14] was Active. The result in [13] was inactive. In the case of `O=C1CCC(N2C(=O)c3cccc(N4CCC(CN5CCN(c6ccc(C(F)(F)F)cc6)CC5)C4)c3C2=O)C(=O)N1` (stereo not given), the Drug uptake in series [1] is given as 0.96%. Consider `N#Cc1ccc(O[C@H]2CC[C@H](NC(=O)c3ccc(C4CCN(CC5CN(c6ccc(C(=O)NC7CCC(=O)NC7=O)cc6)C5)CC4)cc3)CC2)cc1Cl` (stereo not given in full), for which the Drug uptake in [1] worked out at 1.23%. In addition, the DC50 in series [2] came out at 0.0709 µM.

With `N#Cc1ccc(O[C@H]2CC[C@H](NC(=O)c3ccc(N4CCC(CN5CCN(c6ccc7c(c6)C(=O)N(C6CCC(=O)NC6=O)C7=O)CC5)CC4)cc3)CC2)cc1Cl` (stereo not given in full), the Drug uptake in series [1] turned out to be 0.62%. For the same compound, the DC50 in series [2] amounted to 0.207 µM.

Regarding `N#Cc1ccc(O[C@H]2CC[C@H](NC(=O)c3ccc(N4CCC(CN5CCN(c6ccc(C(=O)NC7CCC(=O)NC7=O)cc6)CC5)CC4)cc3)CC2)cc1Cl` (stereo not given in full), in series [1], the Drug uptake is recorded as 0.81%. Moreover, in [2], the 50% degradation concentration (DC50) is over 1 µM.

As to `N#Cc1ccc(O[C@H]2CC[C@H](NC(=O)c3ccc(N4CCC(CCN5CCN(c6ccc(C(=O)NC7CCC(=O)NC7=O)cc6)CC5)CC4)cc3)CC2)cc1Cl` (stereo not given in full), the Drug uptake in [1] stood at 1%. Further, the DC50 in series [2] was over 1 µM. Consider `O=C1CCC(N2C(=O)c3cccc(NC4CCN(CC5CCN(c6ccc(C(F)(F)F)cc6)CC5)CC4)c3C2=O)C(=O)N1` (stereo not given), for which, in series [1], the Drug uptake is 4.34%. Turning to `N#Cc1ccc(O[C@H]2CC[C@H](NC(=O)c3ccc(C4CCN(CC5CN(c6ccc7c(c6)C(=O)N(C6CCC(=O)NC6=O)C7=O)C5)CC4)cc3)CC2)cc1Cl` (stereo not given in full), in series [1], the Drug uptake is reported as 0.6%. For the same compound, in series [2], the DC50 is over 1 µM. For the compound `O=C1CCC(NC(=O)c2ccc(N3CCN(CCC4CCN(c5ccc(F)cc5)CC4)CC3)cc2)C(=O)N1` (stereo not given), the Drug uptake in [1] is 3.92%.

Take `N#Cc1ccc(O[C@H]2CC[C@H](NC(=O)c3ccc(N4CCN(CC5CCN(c6ccc7c(c6)C(=O)N(C6CCC(=O)NC6=O)C7=O)CC5)CC4)cc3)CC2)cc1Cl` (stereo not given in full): in [1], the Drug uptake worked out at 0.69%.

`N#Cc1ccc(O[C@H]2CC[C@H](NC(=O)c3ccc(N4CCN(C5CN(c6ccc7c(c6)C(=O)N(C6CCC(=O)NC6=O)C7=O)C5)CC4)cc3)CC2)cc1Cl` (stereo not given in full): in series [1], the Drug uptake came to 1.41%. The DC50 in [2] was over 1 µM. In the case of `O=C1CCC(N2Cc3cc(OCC#CCN4CCN(CC#Cc5ccc(C(F)(F)F)cc5)CC4)ccc3C2=O)C(=O)N1` (stereo not given), the Drug uptake in series [1] was found to be 5.41%. On the same count and under the same terms, in the case of `O=C1CCC(N2C(=O)c3ccc(N4CCC(CN5CCC(c6ccc(C(F)(F)F)cc6)CC5)C4)cc3C2=O)C(=O)N1` (stereo not given) it was 1.94%. As to `N#Cc1ccc(O[C@H]2CC[C@H](NC(=O)c3ccc(C4CCN(CC5CCCN(c6ccc7c(c6)C(=O)N(C6CCC(=O)NC6=O)C7=O)C5)CC4)cc3)CC2)cc1Cl` (stereo not given in full), the Drug uptake in series [1] is given as 0.58%. Besides, in series [2], the DC50 was over 1 µM.
